Results as given in patent US20130172308A1, “ANTIMICROBIAL AGENTS” (John Grant COLLINS, priority 2011, published 2013).

What was measured:
[1] = system: MRSA (a wild clinical strain from the JCU culture collection); assay: MIC determination, broth micro-dilution (CAMHB); format: cell-based, methicillin-resistant S. aureus; conditions: Table 1; 37° C., 24 h
Protocol: (§1) Four strains of bacteria were chosen for the susceptibility tests: S. aureus ATCC 25923; MRSA (a wild clinical strain from the JCU culture collection); E. coli ATCC 25922 and P. aeruginosa ATCC 27853. The bacteria were grown on Mueller Hinton agar (OXOID, cat. No. CM0337) and suspended in growth medium cation-adjusted Mueller Hinton broth (CAMHB, OXOID, cat. No. CM0405). The MIC of each complex was determined in duplicate by standard micro-dilution methodology (British Society for Antimicrobial Chemotherapy Working Party, J. Antimicrob. Chemother., 1991, 27(suppl. D), 22) using gentamicin as the positive control. The ruthenium complexes were dissolved in CAMHB to a stock solution of […] and two-fold diluted in the broth in 96-well plates in a final volume of […] in each well. The same volume […] of bacterial suspension was added in each well making a concentration range of 0.25 mg ml^−1 to 128 mg ml^−1 for each complex. The plates were incubated at 37° C. for 24 h. The results are summarised in Table 1 below, using the following abbreviations: • Rubpm=ΔΔ-[{Ru(phen)2}2(μ-2,2′-bipyrimidine)]Cl4 • Rudppm=ΔΔ-[{Ru(phen)2}2(μ-4,6-bis(2-pyridyl)pyrimidine)]Cl4 • Rubb7trinuclear=Δ*Δ*-[{Ru*(phen)2}(μ-bb7){Ru(phen)}(μ-bb7){Ru*(phen)2}]Cl6 (only the two terminal metal centres are chiral, the two central metal centres are racemic) • Rubb7tetranuclear=Δ*Δ*-[{Ru*(phen)2}(μ-bb7) {Ru(phen)}(μ-bb7){Ru(phen)}(μ-bb7)-{Ru*(phen)2}]Cl8 (only the two terminal metal centres are chiral, the two central metal centres are racemic)
(§2) Further MIC assays and Minimum Bactericidal Concentration (MBC) assays were conducted against Gram-positive and Gram-negative bacterial strains using symmetric and non-symmetric, inert and labile complexes.

A. baumanii = assay: Further MIC assays, whole spectrum bacteria (CAMHB); format: cell-based; design: unit not given here; conditions: Table 3; Broth: CAMHB
Protocol: (§3) Further MIC assays were conducted against five different bacteria with Rubbn (n=7, 10, 12, 16), two rigid dinuclear species (bridges bpm and dppm) and Gentamicin—Whole spectrum bacteria MIC test results (Broth: CAMHB).

VRE = assay: as above; format: cell-based, vancomycin-resistant Enterococcus; conditions: Table 3; Broth: CAMHB
Protocol: as §3

S. typhimurium = assay: as above; format: cell-based; conditions: Table 3; Broth: CAMHB
Protocol: as §3

S. epidermidis = assay: as above; format: cell-based; conditions: Table 3; Broth: CAMHB
Protocol: as §3

E. faecalis = assay: as above; format: cell-based; design: unit not given beside the values; conditions: Table 3; Broth: CAMHB
Protocol: as §3

E. coli ATCC 25922 = assay: MIC determination, broth micro-dilution (CAMHB); format: cell-based, Escherichia coli; conditions: Table 1; 37° C., 24 h
Protocol: as §1, §2

S. aureus ATCC 25923 = assay: MIC determination, broth micro-dilution (CAMHB); format: cell-based, Staphylococcus aureus; conditions: Table 1; 37° C., 24 h
Protocol: as §1, §2

human red blood cells = assay: Haemolytic assay; format: cell-based; conditions: for First indication (>2%) of haemolysis: 24 h incubation with red blood cells
Protocol: Freshly-drawn human blood was collected using lithium heparin vacuum blood collection tubes (Vacutainer, BD Australia). Erythrocytes were separated by centrifugation for 10 min at 1000 g at 10° C. and washed six times with phosphate-buffered saline (PBS) solution and diluted with PBS to a 10% solution. The concentration of erythrocytes was determined by haemocrit centrifugation (Biofuge Haemo, Heraeus instruments). A 1% Triton-X solution was prepared as the positive control. The complexes to be tested were dissolved in PBS to a stock solution of 2048 mg ml^−1 and two-fold diluted in PBS in round-bottomed 96-well plates in a final volume of […] in each well. […] red blood cell suspension samples were added to the wells making a concentration range from […] to 512 μg ml^−1 for Rubbn (n=10, 12, 16) and 2 μg ml^−1 to 1024 μg ml^−1 for Rubb7, and the plates with each complex were respectively incubated for 1, 2, 4, 8 and 24 h at 37° C. After incubation, the plates were centrifuged at 1000 g for 4 min. […] of supernatant in each well was transferred to a corresponding well in a new 96-well microtitre plate. The absorbance of each well was measured at 540 nm using a plate reader (Mutiskan Ascent, Thermo). Each complex was analysed in duplicate. The solutions of the metal complex at the same tested concentrations without erythrocytes were measured as a negative control.
The extent of haemolysis induced by incubation of the ruthenium complexes for 24 h with freshly-collected human red blood cells is shown in FIG. 1 and summarised in Table 5 below: […]

THP-1 cells = assay: Cytotoxicity assay (cell count with haemacytometer); format: cell-based, human
Protocol: Consequently, the toxicity (IC50) against THP-1 cells (a human acute monocytic leukemia cell line and a good model for nucleated eukaryotic cells) was examined (J. […] Human monocytic THP-1 cells were obtained from the American Type Culture Collection (ATCC, Rockville, Md., USA). […] Cells were seeded at a density of 5×10^5 per well in a sterile flat bottom 96-well plate, and incubated with the desired drug concentration in duplicate, to a total volume of […]. The concentration range for all the complexes was between […]. The plates containing each complex were respectively incubated for 24 and 48 h at 37° C. with 5% CO2. After incubation, the concentration of cells in each well was counted with a haemacytometer and IC50 values were calculated and the results are summarise in Table 6 below: […]

P. aeruginosa ATCC 27853 = assay: MIC determination, broth micro-dilution (CAMHB); format: cell-based, Pseudomonas aeruginosa; conditions: Table 1; 37° C., 24 h
Protocol: as §1, §2

[2] = system: Plasmodium falciparum strain W2; assay: [3H]-hypoxanthine growth inhibition assay; format: cell-based; conditions: Plasmodium falciparum, W2, 96 h
Protocol: (§4) The in vitro antimalarial activities of two of the dinuclear ruthenium(II) complexes and chloroquine were assessed by exposing P. falciparum strains to ten serially diluted two-fold concentrations of each compound. Parasite growth was measured by uptake of tritiated [^3H]-hypoxanthine into newly synthesised parasitic DNA.
(§5) The [^3H]-hypoxanthine growth inhibition assay (Desjardins et al., 1979 Antimicrobial Agents Chemother 16: 710-718) was used to evaluate the in vitro antimalarial activity of the compounds. Briefly, synchronised parasite cultures (>90% rings, 6 to 8 h post invasion) in [^3H]-RPMI-LPLF complete medium with 0.5% parasitaemia and 2% haematocrit were exposed to the compounds at ten two-fold concentrations, ranging from 10,000 to 20 nM in 96-well microtitre plates. Chloroquine was used as a reference drug. Uninfected RBCs at 2% haematocrit were used as background controls. For the 96 h exposure period, the plates were incubated in the gas mixture at 37° C. for approximately 48 h, followed by the addition of 0.2 μCi of ^3H-hypoxanthine (GE Healthcare, Amersham) in [^3H]-RPMI-1640-LPLF to each well and a further 48 h of incubation and then frozen at −20° C. Plates were thawed and harvested using Tomtech Harvester 96 Mach III and radioactive counts were obtained using Wallac TriLux 1450 Microbeta Liquid Scintillation Counter (Perkin Elmer, USA). All assays were performed in triplicate for each strain and at least on two separate occasions.
(§6) Tritiated hypoxanthine uptake data were analysed in Graphpad Prism V5.0 software (GraphPad Software Inc. USA). The concentrations of the dinuclear ruthenium(II) complexes and chloroquine were transformed into logarithmic values. After subtracting the background values, the data from drug-treated wells were normalised against drug-free control wells. Non-linear regression analysis was carried out of the compound's concentration versus parasitic hypoxanthine incorporation. The in vitro antimalarial activity of the compound is defined as inhibitory concentrations (IC50) and (IC90) that cause 50% and 90% inhibition of parasite growth as determined by measuring [^3H]-hypoxanthine incorporation.

[3] = system: Plasmodium falciparum strain D6; assay: [3H]-hypoxanthine growth inhibition assay; format: cell-based; conditions: Plasmodium falciparum, D6, 96 h
Protocol: as §4, §5, §6

[4] = all the tested concentrations, over 24 h

| Compound | MIC MRSA [1] [µg/mL] | MIC A. baumanii (A. baumanii) | MIC VRE (VRE) | MIC S. typhimurium (S. typhimurium) | MIC S. epidermidis (S. epidermidis) | MIC E. faecalis (E. faecalis) | MIC E. coli (E. coli ATCC 25922) [µg/mL] | MIC S. aureus (S. aureus ATCC 25923) [µg/mL] | First indication (>2%) of haemolysis (human red blood cells) [µg/mL] | haemolytic activity (human red blood cells; [4]) | IC50 (THP-1 cells; 24 h) [µM] | IC50 THP-1 (THP-1 cells; 24 h) [µg/mL] | IC50 (THP-1 cells; 48 h) [µM] | IC50 THP-1 (THP-1 cells; 48 h) [µg/mL] | MIC P. aeruginosa (P. aeruginosa ATCC 27853) [µg/mL] | haemolytic activity (human red blood cells; at 10 μM, over 24 h) | other results |
| --- | --- | --- | --- | --- | --- | --- | --- | --- | --- | --- | --- | --- | --- | --- | --- | --- | --- |
| Cc1ccnc(-c2cc(CCCCCCCCCCc3ccnc(-c4cc(C)ccn4)c3)ccn2)c1.F[P-](F)(F)(F)(F)F.F[P-](F)(F)(F)(F)F.F[P-](F)(F)(F)(F)F.F[P-](F)(F)(F)(F)F.[Ru+2].[Ru+2].c1cnc2c(c1)ccc1cccnc12.c1cnc2c(c1)ccc1cccnc12.c1cnc2c(c1)ccc1cccnc12.c1cnc2c(c1)ccc1cccnc12 [ΔΔ-Rubb10, [{Ru(phen)2}2(μ-bb10)](PF6)4] | 4 | 64 | 4 | 32 | 0.5 | 8 | 4 | 4 | 32 | no significant haemolytic activity | 194 | 300 | 103 | 160 | 64 | – | – |
| ΔΔ-[{Ru(phen)2}2(μ-bb12)](PF6)4 [ΔΔ-Rubb12] | 1 | 8 | 2 | 8 | 0.5 | 4 | 2 | 1 | 16 | – | 86 | 135 | 57 | 90 | 16 | essentially exhibited no haemolysis | – |
| Cc1cc[n+]2c(c1)-c1cc(CCCCCCCc3cc[n+]4c(c3)-c3cc(C)cc[n+]3[Ru-4]435([n+]4cccc6ccc7ccc[n+]3c7c64)[n+]3cccc4ccc6ccc[n+]5c6c43)cc[n+]1[Ru-4]213([n+]2cccc4ccc5ccc[n+]1c5c42)[n+]1cccc2ccc4ccc[n+]3c4c21.F[P-](F)(F)(F)(F)F.F[P-](F)(F)(F)(F)F.F[P-](F)(F)(F)(F)F.F[P-](F)(F)(F)(F)F [ΔΔ-Rubb7, [{Ru(phen)2}2(μ-bb7)](PF6)4] | 32 | 64 | 16 | >128 | 1 | 32 | 16 | 16 | 64 | no significant haemolytic activity | 266 | 400 | 173 | 260 | 128 | – | – |
| CCN(CC)CCCC(C)Nc1ccnc2cc(Cl)ccc12 (centres unmarked) [chloroquine, reference compound] | – | – | – | – | – | – | – | – | – | – | – | – | – | – | – | – | IC50 ([2]; read-out: IC50 W2): 0.176 µM; IC90 ([2]; read-out: IC90 W2): 0.383 µM; IC50 ([3]; read-out: IC50 D6): 0.0098 µM; IC90 ([3]; read-out: IC90 D6): 0.0125 µM |
| ΔΔ-[{Ru(phen)2}2(μ-bb16)](PF6)4 [ΔΔ-Rubb16] | 1 | 8 | 2 | 8 | 1 | 2 | 4 | 1 | 4 | – | 48 | 78 | 25 | 40 | 8 | noticeably increased | haemolytic activity (human red blood cells; at 10 μM, for 8 h): low |
